Laboratory results taken from patent US9597407B2, “Targeted antimicrobial moieties” (C3 Jian, Inc., priority 2009, dated 2017).
“Also recorded” adds a separate entry of the source.

Tested on: bacteria
Experiment: Binding of targeting peptides to microorganisms (Table 3)
Conditions: preferably 1x PBS
[1] = microorganism bound by the targeting peptide, binding in aqueous buffers chosen by peptide solubility
[2] = peptide binding in aqueous buffers varied by peptide solubility
[3] = peptide binding in aqueous buffers that varied depending on peptide solubility
[4] = microorganism the targeting peptide binds, binding in aqueous buffers that varied with peptide solubility

Substance: PF-284 (MRYITYSLIPRLLSKKVIHQQ; Peptide with targeting and/or antimicrobial activity)
- Target(s) [1]: C. difficile

Substance: PF-245 (MNDVKPVVQPKQTLKAFLVQLLSVRAGVYIKQNNQLPKTKG; Peptide with targeting and/or antimicrobial activity)
- Target(s) [1]: S. epidermidis; also recorded: M. luteus; also recorded: P. aeruginosa; also recorded: A. baumannii

Substance: PF-206 (KLRSASKKSLQEKSCGIMPEKPAG; Peptide with targeting and/or antimicrobial activity)
- Target(s) [1]: M. luteus; also recorded: C. albicans; also recorded: C. jeikeium; also recorded: C. jejuni

Substance: 1T-45 (WTKPSFTDLRLGFEVTLYFANR; Peptide with targeting and/or antimicrobial activity) [Peptide 1T-45]
- Target(s) (microorganism bound by the targeting peptide) [2]: S. aureus; also recorded: S. epidermidis; also recorded: C. striatum; also recorded: P. aeruginosa

Substance: 1T-82 (FGVGVGIALFMAGYAIGKDLRKKFGKSC; Peptide with targeting and/or antimicrobial activity) [Peptide 1T-82]
- Target(s) (microorganism bound by the targeting peptide) [2]: S. pneumoniae

Substance: PF-412 (TSGWLGQLEQ; Peptide with targeting and/or antimicrobial activity)
- Target(s) (microorganisms bound by the targeting peptide) [3]: M. luteus; also recorded: E. coli; also recorded: C. albicans; also recorded: C. jeikeium; also recorded: C. jejuni

Substance: PF-504 (ILSVELSTKTSASGS; Peptide with targeting and/or antimicrobial activity)
- Target(s) (microorganisms bound by the targeting peptide) [3]: S. mutans; also recorded: E. coli

Substance: 1T-107 (SPVPRFTAVGGVSRGSP; Peptide with targeting and/or antimicrobial activity) [Peptide 1T-107]
- Target(s) (microorganism bound by the targeting peptide) [2]: A. naeslundii; also recorded: S. epidermidis; also recorded: S. gordonii; also recorded: S. mitis; also recorded: S. mutans; also recorded: S. oralis; also recorded: S. salivarious; also recorded: S. sanguinis

Substance: PF-732 (DRPSQTTHHTLSSSRITGPS; Peptide with targeting and/or antimicrobial activity)
- Target(s) (microorganism bound by the targeting peptide) [3]: E. coli

Substance: PF-214 (GHLRVCWVFSASLLTPFRSATLI; Peptide with targeting and/or antimicrobial activity)
- Target(s) [1]: S. mutans; also recorded: S. epidermidis; also recorded: M. luteus; also recorded: E. coli; also recorded: P. aeruginosa; also recorded: A. baumannii

Substance: 1T-81 (AIATGLDIVDGKFDGYLWA; Peptide with targeting and/or antimicrobial activity) [Peptide 1T-81]
- Target(s) (microorganism bound by the targeting peptide) [2]: S. pneumoniae

Substance: 1T-215 (VCFKDISVFLSPFRGQEVLFCGKAKHSLIYVIGT; Peptide with targeting and/or antimicrobial activity) [Peptide 1T-215]
- Target(s) [4]: S. sanguinis

Substance: 1T-119 (SPATQKAPTRAQPSRAPVQDCGDGRPTAAPDDVERLSPR; Peptide with targeting and/or antimicrobial activity) [Peptide 1T-119]
- Target(s) (microorganism bound by the targeting peptide) [2]: S. gordonii; also recorded: S. mitis; also recorded: S. mutans; also recorded: S. oralis

Substance: 1T-218 (KLIFAALGLVFLLIGLRDSRSK; Peptide with targeting and/or antimicrobial activity) [Peptide 1T-218]
- Target(s) [4]: F. nucleatum; also recorded: S. sanguinis

Substance: 1T-46 (FSFKQRVMFRKEVERLR; Peptide with targeting and/or antimicrobial activity) [Peptide 1T-46]
- Target(s) (microorganism bound by the targeting peptide) [2]: S. aureus; also recorded: S. epidermidis; also recorded: C. jeikeium; also recorded: C. xerosis; also recorded: C. striatum; also recorded: P. aeruginosa

Substance: PF-768 (GFRGGKRGGARG; Peptide with targeting and/or antimicrobial activity)
- Target(s) (microorganism bound by the targeting peptide) [3]: S. epidermidis; also recorded: S. pneumoniae; also recorded: E. faecalis; also recorded: C. jeikeium

Substance: 1T-68 (GGTKEIVYQRG; Peptide with targeting and/or antimicrobial activity) [Peptide 1T-68]
- Target(s) (microorganism bound by the targeting peptide) [2]: S. mutans; also recorded: S. aureus; also recorded: C. jeikeium; also recorded: C. xerosis; also recorded: C. striatum; also recorded: P. aeruginosa

Substance: PF-436 (KKHVLVGKQEKNG; Peptide with targeting and/or antimicrobial activity)
- Target(s) (microorganisms bound by the targeting peptide) [3]: C. jeikeium

Substance: 1T-207 (SPLEKYGTGSMTALTFLLGCCLLVLSKKSR; Peptide with targeting and/or antimicrobial activity) [Peptide 1T-207]
- Target(s) [4]: F. nucleatum; also recorded: S. sanguinis

Substance: PF-337 (YMTKKLVEMAERQMAGK; Peptide with targeting and/or antimicrobial activity)
- Target(s) [1]: S. epidermidis

Substance: PF-788 (GLITVFAGTARILQLRRAAKKTHAAALR; Peptide with targeting and/or antimicrobial activity)
- Target(s) (microorganism bound by the targeting peptide) [3]: Mycobacteria spp.

Substance: PF-731 (RHKLIRLPLSESVFCFLNNPKI; Peptide with targeting and/or antimicrobial activity)
- Target(s) (microorganism bound by the targeting peptide) [3]: L. pneumophila

Substance: 1T-44 (DPALADFAAGMRAQVRT; Peptide with targeting and/or antimicrobial activity) [Peptide 1T-44]
- Target(s) (microorganism bound by the targeting peptide) [2]: S. mutans; also recorded: S. aureus; also recorded: S. epidermidis; also recorded: C. jeikeium; also recorded: C. striatum; also recorded: P. aeruginosa

Substance: PF-795 (ALHKSGIQVIADWVPDQIYN; Peptide with targeting and/or antimicrobial activity)
- Target(s) (microorganism bound by the targeting peptide) [3]: S. mutans

Substance: 1T-95 (GHLLRVGGRVGGVGGVAGACAQPFGGQ; Peptide with targeting and/or antimicrobial activity) [Peptide 1T-95]
- Target(s) (microorganism bound by the targeting peptide) [2]: S. gordonii; also recorded: S. mitis; also recorded: S. mutans; also recorded: S. oralis; also recorded: S. sanguinis

Substance: 1T-288 (RWVGGEPSADIYLSAKDTKT; Peptide with targeting and/or antimicrobial activity) [Peptide 1T-288]
- Target(s) [4]: F. nucleatum; also recorded: S. gordonii; also recorded: S. salivarious; also recorded: S. sanguinis

Substance: PF-648 (ARRYPAAGS; Peptide with targeting and/or antimicrobial activity)
- Target(s) (microorganism bound by the targeting peptide) [3]: S. mutans; also recorded: E. coli

Substance: PF-150 (EIQAKGTG; Peptide with targeting and/or antimicrobial activity)
- Target(s) [1]: S. epidermidis and MRSA

Substance: 1T-62 (GCKGCAQRDPCAEPEPYFRLR; Peptide with targeting and/or antimicrobial activity) [Peptide 1T-62]
- Target(s) (microorganism bound by the targeting peptide) [2]: S. epidermidis; also recorded: P. aeruginosa

Substance: PF-159 (TMAFVEKAQLRVPVGDDLPV; Peptide with targeting and/or antimicrobial activity)
- Target(s) [1]: S. epidermidis

Substance: PF-772 (TKESSS; Peptide with targeting and/or antimicrobial activity)
- Target(s) (microorganism bound by the targeting peptide) [3]: S. epidermidis and C. albicans and MRSA and S. pneumoniae and C. jeikeium

Substance: 1T-222 (RIEASLISAIMFSMFNAIVKFLQK; Peptide with targeting and/or antimicrobial activity) [Peptide 1T-222]
- Target(s) [4]: F. nucleatum; also recorded: S. sanguinis

Substance: PF-172 (LTGVRRPWRAPWAGTSGWALR; Peptide with targeting and/or antimicrobial activity)
- Target(s) [1]: S. epidermidis and M. luteus and E. coli and P. aeruginosa and MRSA and E. faecalis and C. jejuni

Substance: PF-568 (TQAVQVKTAQAQQQ; Peptide with targeting and/or antimicrobial activity)
- Target(s) (microorganisms bound by the targeting peptide) [3]: S. epidermidis

Substance: 1T-39 (FGFCVWMYQLLAGPPGPPA; Peptide with targeting and/or antimicrobial activity) [Peptide 1T-39]
- Target(s) (microorganism bound by the targeting peptide) [2]: S. mutans; also recorded: P. aeruginosa

Substance: PF-062 (MKKKRINNDILGRMIYSSSIDKRNLYNLKYYE; Peptide with targeting and/or antimicrobial activity)
- Target(s) [4]: S. epidermidis and M. luteus and E. coli and P. aeruginosa and MRSA and S. pneumoniae and E. faecalis and C. jeikeium

Substance: PF-142 (GIDRGCQAAR; Peptide with targeting and/or antimicrobial activity)
- Target(s) [1]: S. mutans

Substance: 1T-105 (GEGLPPPVLHLPPPRMSGR; Peptide with targeting and/or antimicrobial activity) [Peptide 1T-105]
- Target(s) (microorganism bound by the targeting peptide) [2]: S. epidermidis; also recorded: S. gordonii; also recorded: S. mitis; also recorded: S. mutans; also recorded: S. oralis

Substance: PF-181 (GIAPRRNEWGAVGGR; Peptide with targeting and/or antimicrobial activity)
- Target(s) [1]: S. epidermidis and M. luteus and E. coli and MRSA and E. faecalis and C. jeikeium

Substance: 1T-193 (LMIFDKHANLKYKYGNRSFGVEAIM; Peptide with targeting and/or antimicrobial activity) [Peptide 1T-193]
- Target(s) [4]: S. sanguinis

Substance: PF-152 (VGYFIWKDSHSRKG; Peptide with targeting and/or antimicrobial activity)
- Target(s) [1]: S. epidermidis and C. albicans and MRSA and E. faecalis and C. jeikeium

Substance: 1T-43 (DRCLSVLSWSPPKVSPLI; Peptide with targeting and/or antimicrobial activity) [Peptide 1T-43]
- Target(s) (microorganism bound by the targeting peptide) [2]: C. jeikium; also recorded: P. aeruginosa

Substance: PF-C259 (AEIQPHCLSVL; Peptide with targeting and/or antimicrobial activity)
- Target(s) (microorganism bound by the targeting peptide) [3]: F. nucleatum; also recorded: S. mutans

Substance: 1T-75 (GVARGLQLGIKTRTQWGAATGAA; Peptide with targeting and/or antimicrobial activity) [Peptide 1T-75]
- Target(s) (microorganism bound by the targeting peptide) [2]: S. pneumoniae

Substance: PF-508 (VSTFGKVVKVVDEK; Peptide with targeting and/or antimicrobial activity)
- Target(s) (microorganisms bound by the targeting peptide) [3]: S. mutans
